Reference: publication PMC6269846, “Pyrrolizidine Alkaloids and Fatty Acids from the Endemic Plant Species Rindera umbellata and the Effect of Lindelofine-N-oxide on Tubulin Polymerization” (Molecules, 2013)

Columns and labels:
tubulin [1] = test system: T1, tubulin; experiment: turbidimetric tubulin polymerization assay (absorbance at […] nm); format: biochemical, Bos taurus
T1 construct: tubulin isolated from bovine brain (α/β heterodimer); with α-tubulin/β-tubulin heterodimer

tubulin [2] = test system: T1, tubulin; experiment: turbidimetric tubulin polymerization assay (absorbance at […] nm), positive control; format: biochemical, Bos taurus

Row | SMILES | IC50 (tubulin [1]) | IC50 (tubulin [2])
1 | CC(C)[C@@](O)(C(=O)OC[C@@H]1CC[N+]2([O-])CCC[C@H]12)[C@@H](C)O (stereo partly drawn) [compound 7, (2S,3R)-((1R,7aR)-hexahydro-1H-pyrrolizin-1-yl)methyl2,3-dihydroxy-2-isopropylbutanoate-N-oxide] | 91 µM | –
2 | CC(=O)O[C@H]1C(=O)[C@@]2(C)[C@H]([C@H](OC(=O)c3ccccc3)[C@]3(O)C[C@H](OC(=O)[C@H](O)[C@@H](NC(=O)c4ccccc4)c4ccccc4)C(C)=C1C3(C)C)[C@]1(OC(C)=O)CO[C@@H]1C[C@@H]2O [paclitaxel] | – | 2.4 µM
